Reference: patent publication US20250213644A1, “COMPOSITIONS AND METHODS FOR TREATMENT OF BONE-RELATED DISEASE OR DISORDER” (priority 2021, published 2025)

Legend:
newly formed bone = settings: rats, after 6 to 8 weeks of treatment; cited from earlier work
[1] = system: New-born mouse calvarial osteoblasts; assay: Osteoblast proliferation assay (cell counts), WT and CB2−/− mouse-derived cultures
human osteoblasts = assay: Human osteoblast proliferation assay with or without SR144528; settings: with CB2-selective antagonist SR144528
CB2 = CB2 (Homo sapiens, UniProt P34972); settings: increasing concentrations of 5aa-OGP; CHO-CB2-derived membranes
age-related bone loss = assay: Prevention of age-related bone loss in male mice, μCT; type: in vivo, mouse; settings: male mice treated from 3 to 6 months of age
OVX-induced bone loss = assay: Rescue of OVX-induced bone loss, μCT of femora; type: in vivo, mouse
[2] = system: Ti particle-induced osteolysis; assay: Calvarial osteolysis model, Ti particle-induced osteolysis, μCT; type: in vivo, mouse; settings: fibrin membranes with Ti particles loaded with 10^−11M 5aa-OGP on mice calvaria; 4 weeks post-op
Description: FIGS. 5A-5C show the effect of topically administered 5aa-OGP on Ti particle-induced osteolysis in vivo: Fibrin membranes including titanium particles derived from sand-blasted Ti implants, with 5aa-OGP (TiP+5aa-OGP) or with saline (TiP) were implanted onto mice calvaria. Membranes with no TiP were inserted in the control group. Mice were sacrificed 4 weeks post-op. and subjected to CT analysis. FIG. 5A—Pit Resorption Volume over total volume (PR.V/TV), FIG. 5B—Bone volume in the region of interest, chiefly representing the calvarial thickness), and FIG. 5C—Representative CT images of the calvaria. Data are expressed as mean±SD (n=4). *p<0.05 vs. Titanium.
Calvarial Osteolysis Model. To test the direct effect of Ti particles on inflammation-induced osteolysis in vivo, a mouse calvaria model and μCT analysis specifically designed in our laboratory was used. […]
μCT analysis—All specimens were scanned and analyzed using a μCT system (CT 50, Scanco Medical AG, Switzerland). […]
A custom-made algorithm based on Image-Processing Language (IPL, Scanco Medical) was developed to isolate the resorption pits, defined as unmineralized pits that were […] deep on the bone surface. The measured resorption volume was limited to a […] depth because beyond that, the resorption pit was connected to the internal diploe. […]

[3] = mouse-derived osteoblast cultures, 48-hour incubation
[4] = WT OVX mice, 10 ng/day s.c. for 6 weeks

Chain of CB2 (P34972 whole entry): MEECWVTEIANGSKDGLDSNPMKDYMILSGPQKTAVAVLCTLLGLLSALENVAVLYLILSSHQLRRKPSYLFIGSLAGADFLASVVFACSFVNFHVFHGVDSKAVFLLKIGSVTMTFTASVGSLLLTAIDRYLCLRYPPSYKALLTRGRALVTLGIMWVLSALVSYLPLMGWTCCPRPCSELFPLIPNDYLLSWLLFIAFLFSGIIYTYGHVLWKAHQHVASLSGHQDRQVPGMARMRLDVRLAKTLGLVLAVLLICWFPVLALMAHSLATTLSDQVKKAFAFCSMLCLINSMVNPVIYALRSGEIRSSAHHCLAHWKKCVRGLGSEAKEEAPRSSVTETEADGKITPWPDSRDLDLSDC

Compound	Quality and biomechanical properties (e.g. bone strength) of the newly formed bone (newly formed bone)	Osteoblastic proliferative activity [1, 3]	Proliferative effect in human osteoblasts (human osteoblasts)	Osteoblastic proliferative activity ([1]; CB2−/−-derived murine osteoblasts (genetic ablation of CB2))	Displacement of tritiated CP55,940 (CB2)	Trabecular connectivity density (age-related bone loss)	Trabecular number (age-related bone loss)	Trabecular thickness (age-related bone loss)	Any of the measured bone parameters (OVX-induced bone loss; OVX CB2−/− animals, 10 ng/day s.c. for 6 weeks)	Cortical bone parameters (OVX-induced bone loss; [4])	Trabecular number (Tb.N) (OVX-induced bone loss; [4])	Trabecular thickness (Tb.Th) (OVX-induced bone loss; [4])	Trabecular volumetric bone mineral density (vBMD) (OVX-induced bone loss; [4])	Trabecular bone volume fraction (BV/TV), change vs. OVX, VEH-treated mice (OVX-induced bone loss; WT OVX mice, 10 ng/day s.c. once a day for 6 weeks, starting 6 weeks post-OVX, p=0.035)	Bone volume in the calvaria (region of interest) [2]	Ti particle-induced osteolysis (Pit Resorption Volume over total volume, PR.V/TV) [2]
C=C(C)[C@@H]1CCC(C)=C[C@H]1c1c(O)cc(CCCCC)cc1O [CBD, Cannabidiol]	enhanced															
CCCCCCC(C)(C)c1cc(OC)c(C2=C[C@H]3CC[C@]2(CO)C3(C)C)c(OC)c1 [HU-910, reference compound]		nearly an identical dose response relationship	abrogated													
YGFGG (listed as Homo sp.) [5aa-OGP]		nearly an identical dose response relationship	abrogated	completely abrogated	did not displace CP55,940	significantly increased	significantly increased	significantly increased	no effect	did not affect	significant increases	significant increases	significant increases	+45.9%	increased bone volume	completely prevented this bone loss
